Test results published in US7049311B1, “Pyrrolbenzodiazepines” (Spirogen Limited, priority 1998, dated 2006).
Read-outs that look alike come from different tables or passages of the source.

How the values were obtained:
Test in all cases: Ovarian carcinoma cytotoxicity assay
A2780cisR = assay type: cell-based, human
Experimental: (§1) Compounds of the invention (and Anthramycin as a comparison) were evaluated for their cytotoxic activity in ovarian cell lines by Dr Lloyd R. Kelland's group at The Institute of Cancer Research, Sutton, UK. The five cell lines investigated were SKOV-3, A2780/A2780cisR and CH1/CH1cisR (cis R denotes that the cell line is resistant to cisplatin).
(§2) Single viable cells were seeded in growth medium (160 μL) in […] microtitre plates and allowed to attach overnight. […] After 96 hours, the medium was removed and the remaining cells fixed by exposure to 10% trichloroacetic acid on ice for 30 minutes. The wells were then washed 3-4 times with tap water, air dried overnight and treated with 100 μL of sulphorhodamine B (0.4%) dissolved in 1% acetic acid. Staining was allowed to continue for 10-15 minutes, then the wells were washed 3-4 times with 1% acetic acid, air dried and then added to Tris base (100 μL of 10 mM). Plates were then shaken and absorbance readings at 540 nm were determined using a plate reader. By using the Quattro-Pro software package, the IC50 values were calculated from plots of concentration versus percentage absorbance (compared with 8 untreated wells).

A2780 = assay type: cell-based, human
Experimental: as §1, §2

CH1cisR = assay type: cell-based
Experimental: as §1, §2

CH1 = assay type: cell-based
Experimental: as §1, §2

SKOV-3 = assay type: cell-based
Experimental: as §1, §2

[1] = Homo sapiens, A2780cisR, 96 h, read-out: IC50 A2780cisR, cisplatin-resistant, 96 hours, sulphorhodamine B
[2] = Homo sapiens, A2780, 96 h, read-out: IC50 A2780, 96 hours, sulphorhodamine B
[3] = Homo sapiens, CH1cisR, 96 h, read-out: IC50 CH1cisR, cisplatin-resistant, 96 hours, sulphorhodamine B
[4] = Homo sapiens, CH1, 96 h, read-out: IC50 CH1, 96 hours, sulphorhodamine B
[5] = Homo sapiens, SK-OV-3, 96 h, read-out: IC50 Skov3, 96 hours, sulphorhodamine B

Structure (SMILES): Cc1ccc2c(c1O)NC(O)C1CC(/C=C/C(N)=O)=CN1C2=O (stereo not drawn) [Anthramycin, anthramycin, reference compound]
- IC50 (A2780cisR; [1]): 0.16 µM
- IC50 (A2780; [2]): 0.155 µM
- IC50 (CH1cisR; [3]): 0.05 µM
- IC50 (CH1; [4]): 0.062 µM
- IC50 (SKOV-3; [5]): 0.16 µM

Structure (SMILES): COc1cc2c(cc1OCCC(=O)N1CCCCC1)N=C[C@@H]1CCCN1C2=O [UP2006 (163)]
- IC50 (A2780cisR; [1]): 14.5 µM
- IC50 (A2780; [2]): 3.2 µM
- IC50 (CH1cisR; [3]): 7.9 µM
- IC50 (CH1; [4]): 4.9 µM
- IC50 (SKOV-3; [5]): 23.5 µM

Structure (SMILES): COc1cc2c(cc1OCCC(=O)N1CCc3ccccc31)N=C[C@@H]1CCCN1C2=O [UP2007 (165), 1, (2,3-dihydro-1H-indolyl)-3-(7-methoxy-5-oxy(11as)-2,3,5,11a-tetrahydro-1H-benzo[e]pyrrolo[1,2-a][1,4]diazepin-8-yloxy)-1-propanone]
- IC50 (A2780cisR; read-out: IC50 A2780cisR, cisplatin-resistant, 96 hours, sulphorhodamine B): 4.9 µM
- IC50 (A2780; read-out: IC50 A2780, 96 hours, sulphorhodamine B): 1.55 µM
- IC50 (CH1cisR; read-out: IC50 CH1cisR, cisplatin-resistant, 96 hours, sulphorhodamine B): 3 µM
- IC50 (CH1; read-out: IC50 CH1, 96 hours, sulphorhodamine B): 1.5 µM
- IC50 (SKOV-3; read-out: IC50 Skov3, 96 hours, sulphorhodamine B): 5.8 µM

Structure (SMILES): COc1cc2c(c(OC)c1OCCCOc1c(OC)cc3c(c1OC)N=C[C@@H]1CCCN1C3=O)N=C[C@@H]1CCCN1C2=O [UP2020 (90)]
- IC50 (A2780cisR; [1]): 7.2 µM
- IC50 (A2780; [2]): 10 µM
- IC50 (CH1cisR; [3]): 2.8 µM
- IC50 (CH1; [4]): 1.7 µM
- IC50 (SKOV-3; [5]): 1.6 µM

Structure (SMILES): COc1cc2c(c(OC)c1O)N=CC1CC(=O)CN1C2 (stereo not drawn) [UP2021 (130), 7,9-dimethoxy-8-Hydroxy-1,2,3,11a-tetrahydropyrrolo[2,1-c][1,4]benzodiazepin-2-one]
- IC50 (A2780cisR; [1]): > 100 µM
- IC50 (A2780; [2]): > 100 µM
- IC50 (CH1cisR; [3]): 47 µM
- IC50 (CH1; [4]): 51 µM
- IC50 (SKOV-3; [5]): > 100 µM

Structure (SMILES): COc1cc2c(c(OC)c1OCc1ccccc1)N=C[C@@H]1CCCN1C2=O [UP2022 (143), 8-Benzyloxy-7,9-dimethoxy-1,2,3,11a-tetrahydropyrrolo[2,1-c][1,4]benzodiazepin-5-one]
- IC50 (A2780cisR; [1]): 16.5 µM
- IC50 (CH1cisR; [3]): 11 µM
- IC50 (CH1; [4]): 14 µM
- IC50 (SKOV-3; [5]): 33 µM

Structure (SMILES): COc1cccc2c1N=C[C@@H]1CCCN1C2=O [UP2024 (101), (11aS)-9-methoxy-1,2,3,11a-tetrahydro-5H-pyrrolo[2,1-c][1,4]benzodiazepin-5-one]
- IC50 (A2780cisR; [1]): 1.8 µM
- IC50 (A2780; [2]): 1.4 µM
- IC50 (CH1cisR; [3]): 1.25 µM
- IC50 (CH1; [4]): 1.45 µM
- IC50 (SKOV-3; [5]): 2.35 µM

Structure (SMILES): COc1cc2c(cc1OC)C(=O)N1CCC[C@H]1C=N2 [UP2025 (106), (11aS)-7,8-dimethoxy-1,2,3,11a-tetrahydro-5H-pyrrolo [2,1-c][1,4]benzodiazepin-5-one]
- IC50 (A2780; [2]): 0.064 µM
- IC50 (CH1cisR; [3]): 0.11 µM
- IC50 (CH1; [4]): 0.082 µM
- IC50 (SKOV-3; [5]): 1.7 µM

Structure (SMILES): COC(=O)CC1=CN2C(=O)c3cc(OC)c(OCCCOc4cc5c(cc4OC)C(=O)N4C=C(CC(=O)OC)C[C@H]4C=N5)cc3N=C[C@@H]2C1 [UP2053 (56)]
- IC50 (A2780cisR; [1]): 0.058 µM
- IC50 (A2780; [2]): 0.0054 µM
- IC50 (CH1cisR; [3]): 0.011 µM
- IC50 (CH1; [4]): 0.0115 µM
- IC50 (SKOV-3; [5]): 0.1 µM

Structure (SMILES): COc1cc2c(cc1OCc1ccccc1)N=C[C@@H]1CC(CC#N)=CN1C2=O [UP2074 (10)]
- IC50 (A2780cisR; [1]): 0.43 µM
- IC50 (A2780; [2]): 0.155 µM
- IC50 (CH1cisR; [3]): 0.27 µM
- IC50 (CH1; [4]): 0.105 µM
- IC50 (SKOV-3; [5]): 0.52 µM

Structure (SMILES): COc1cc2c(c(OC)c1OC)N=C[C@@H]1CCCN1C2=O [UP2086 (120), 7,8,9-Trimethoxy-1,2,3,11a-tetrahydro-5H-pyrrolo[2,1-c][1,4]benzodiazepin-5-one]
- IC50 (A2780cisR; [1]): 0.45 µM
- IC50 (A2780; [2]): 0.84 µM
- IC50 (CH1cisR; [3]): 2.2 µM
- IC50 (CH1; [4]): 1.6 µM
- IC50 (SKOV-3; [5]): 2.5 µM

Structure (SMILES): COc1cc2c(cc1OCCCNC(=O)OCC1c3ccccc3-c3ccccc31)N=C[C@@H]1CCCN1C2=O [UP2088 (205), (11aS) 8-(N-9-fluorenylmethoxycarbonyl)aminopropyloxy-7-methoxy-1,2,3,11a-tetrahydro-5H-pyrrolo[2,1-c][1,4]benzodiazepin-5-one]
- IC50 (A2780cisR; cisplatin-resistant, 96 hours, sulphorhodamine B, read-out: IC50 A2780cisR): 8.5 µM
- IC50 (A2780; 96 hours, sulphorhodamine B, read-out: IC50 A2780): 11 µM
- IC50 (CH1cisR; cisplatin-resistant, 96 hours, sulphorhodamine B, read-out: IC50 CH1cisR): 16 µM
- IC50 (CH1; 96 hours, sulphorhodamine B, read-out: IC50 CH1): 12 µM
- IC50 (SKOV-3; 96 hours, sulphorhodamine B, read-out: IC50 Skov3): 14 µM

Structure (SMILES): C=CC1=CN2C(=O)c3cc(OC)c(OC)cc3N=C[C@@H]2C1 [UP2089 (177), (11aS)-1,11a-dihydro-7,8-dimethoxy-2-ethenyl-5H-pyrrolo[2,1-c][1,4]benzodiazepin-5-one]
- IC50 (A2780cisR; [1]): 0.0042 µM
- IC50 (A2780; [2]): 0.0022 µM
- IC50 (CH1cisR; [3]): 0.0023 µM
- IC50 (CH1; [4]): < 0.0025 µM
- IC50 (SKOV-3; [5]): 0.0054 µM
